Laboratory results: patent publication US4760087A, “Phenol derivatives and pharmaceutical compositions containing these compounds” (Gruenenthal GmbH, priority 1985, dated 1988)

What was measured:
5-lipoxygenase = target: T1, 5-lipoxygenase (Rattus norvegicus, UniProt P12527); assay: Inhibition of 5-lipoxygenase in rat basophilic leukemia cells (5-HETE and LTB4 formation from [14C]-arachidonic acid); type: cell-based; details: indomethacin 10 μM, A 23187, room temperature, 5 minutes, read-out: IC50 for inhibition of 5-lipoxygenase (I)
T1 construct: endogenous in cells; host or cells: rat basophilic leukemia cells
T1 sequence (P12527 1-673): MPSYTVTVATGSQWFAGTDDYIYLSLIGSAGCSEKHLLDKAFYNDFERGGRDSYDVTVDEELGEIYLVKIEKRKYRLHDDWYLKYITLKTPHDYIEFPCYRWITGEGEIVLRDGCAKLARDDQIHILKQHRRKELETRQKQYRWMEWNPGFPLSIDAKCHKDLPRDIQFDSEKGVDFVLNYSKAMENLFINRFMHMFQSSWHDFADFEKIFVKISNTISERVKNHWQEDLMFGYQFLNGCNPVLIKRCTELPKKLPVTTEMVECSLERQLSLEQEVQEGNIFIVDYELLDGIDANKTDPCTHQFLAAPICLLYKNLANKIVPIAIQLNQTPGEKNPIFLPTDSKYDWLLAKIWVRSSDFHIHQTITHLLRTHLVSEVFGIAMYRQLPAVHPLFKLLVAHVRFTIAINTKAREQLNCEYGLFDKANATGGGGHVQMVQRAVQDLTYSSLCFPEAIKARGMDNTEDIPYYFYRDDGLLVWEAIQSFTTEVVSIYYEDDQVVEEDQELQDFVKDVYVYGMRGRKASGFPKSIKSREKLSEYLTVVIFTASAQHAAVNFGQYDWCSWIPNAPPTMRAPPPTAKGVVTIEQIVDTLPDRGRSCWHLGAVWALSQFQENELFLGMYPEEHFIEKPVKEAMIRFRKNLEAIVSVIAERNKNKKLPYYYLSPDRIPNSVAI
Protocol: To determine the inhibition of 5-lipoxygenase rat basophilic leukemia cells were cultured in vitro, and after a cell concentration of about 10^6 cells/ml had been obtained, the cells were harvested by centrifugation at 400 g. The precipitate was suspended in 50 mM potassium phosphate buffer of pH 7.4 at 1.5×10^7 cells/ml.
To 1 ml each of this suspension there was added indomethacin (10 μM) and calcium chloride (2 mM) and then the mixture was incubated in presence or absence of a test compound with [^14 C]-arachidonic acid and the calcium ionophore A 23 187 [Chaney et al., J. Am. Chem. Soc. 96: 1932-3 (1974)] at room temperature for 5 minutes. The mixture was acidified to pH 5 and extracted with ethyl acetate to isolate the metabolites of arachidonic acid formed by the enzymatic action of 5-lipoxygenase. These were separated by thin layer chromatography using a solvent mixture known to be suitable for leukotriene analysis [c.f. Jakschik et al., Biochem. Biophys. Res. Commun. 102, 624 (1984)]. The distribution of the radioactivity among the different metabolites was measured with a Thin Layer Scanner (TLC linear analyzer). By bringing into relationship the percentages of the amount of 5-hydroxyeicosatetraenoic acid (5-HETE) and leukotriene B4 (LTB4) formed under the action of 5-lipoxygenase to the amount or the concentration, respectively, of the total radioactivity used and of the test compound of formula I the "IC50 -value I" (i.e. the concentration of the test compound which causes an 50%-inhibition of the 5-lipoxygenase) is determined.

cyclooxygenase = target: T2, cyclooxygenase (Ovis aries, UniProt P05979); assay: Inhibition of cyclooxygenase in sheep seminal vesicle microsomes; type: biochemical; details: for Quotient IC50 II/IC50 I: cyclooxygenase IC50 (II) / 5-lipoxygenase IC50 (I); for IC50: sheep seminal vesicle microsomes, pH 7.5, 10 minutes, room temperature, read-out: IC50 for inhibition of cyclooxygenase (II)
T2 construct: suspension of sheep seminal vesicle microsomes; from tissue; host or cells: sheep seminal vesicle microsomes
T2 sequence (P05979 25-600): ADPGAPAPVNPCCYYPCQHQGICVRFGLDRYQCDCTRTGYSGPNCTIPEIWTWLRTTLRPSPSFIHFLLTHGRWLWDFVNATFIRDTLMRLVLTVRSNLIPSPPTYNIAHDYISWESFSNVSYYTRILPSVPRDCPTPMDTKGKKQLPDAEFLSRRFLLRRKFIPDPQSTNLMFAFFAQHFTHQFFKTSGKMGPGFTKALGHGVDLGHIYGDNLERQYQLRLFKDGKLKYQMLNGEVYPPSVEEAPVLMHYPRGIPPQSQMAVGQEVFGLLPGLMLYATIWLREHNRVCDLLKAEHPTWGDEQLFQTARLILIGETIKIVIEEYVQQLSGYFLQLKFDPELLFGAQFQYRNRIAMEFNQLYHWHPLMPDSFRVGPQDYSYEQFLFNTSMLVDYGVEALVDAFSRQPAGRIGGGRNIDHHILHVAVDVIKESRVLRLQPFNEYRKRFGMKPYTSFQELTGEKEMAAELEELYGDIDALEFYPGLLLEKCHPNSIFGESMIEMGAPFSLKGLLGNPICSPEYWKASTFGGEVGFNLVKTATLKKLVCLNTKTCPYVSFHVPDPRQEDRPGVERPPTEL
Protocol: The effect of the test compounds on the activity of cyclooxygenase was tested usinfg a suspension of sheep seminal vesicle microsomes in 50 mM potassium phosphate buffer of pH 7.5 which was incubated for 10 minutes at room temperature with the test compound and [^14 C]-arachidonic acid. After acidification with glacial acetic acid the mixture was extracted with ethyl acetate and the residue obtained after evaporation of the extract separated by thin layer chromatography on plates precoated with silica gel using the solvent system ether/hexane/glacial acetic acid (50:50:1).

Sprague-Dawley-rats [1] = assay: Inhibition of kaolin-induced paw oedema, test compound given intraperitoneally three hours after induction; type: in vivo; details: for % Inhibition (Maximum) of oedema: 3 h after kaolin, more than 100% = decrease below initial value
Protocol: By subplantar injection of 0.1 ml of a kaolin suspension (100 mg/ml) into Sprague-Dawley-rats, an oedema is induced and the paw volume is measured plethysometrically every hour. Three hours after the induction of the oedema a suspension of the respective test compound in a 1% carboxymethylcellulose sodium solution (5 ml/kg body weight of the animal) is administered intraperitoneally. In table 2 the percentage of alteration in the paw volume due to the inhibition of the oedema by the test compound in relation to the volume determined immediately before the test compound was applied (i.e. the initial value) is shown. (FIGS. of more than 100% indicate a decrease in the volume of the oedema below the initial value): […]

Sprague-Dawley-rats [2] = assay: Inhibition of kaolin-induced paw oedema, test compound injected in each paw simultaneously with kaolin; type: in vivo; details: 1 mg injected in each paw simultaneously with kaolin
Protocol: By subplantar injection of 0.1 ml of a kaolin suspension (100 mg/ml) into Sprague-Dawley-rats, an oedema is induced and the paw volume is measured plethysometrically every hour. Three hours after the induction of the oedema a suspension of the respective test compound in a 1% carboxymethylcellulose sodium solution (5 ml/kg body weight of the animal) is administered intraperitoneally. In table 2 the percentage of alteration in the paw volume due to the inhibition of the oedema by the test compound in relation to the volume determined immediately before the test compound was applied (i.e. the initial value) is shown. (FIGS. of more than 100% indicate a decrease in the volume of the oedema below the initial value):
In other experiments the test compound was administered simultaneously with the application of the kaolin suspension by injection of 1 mg of the test compound dissolved in 0.1 ml of a 1% carboxymethylcellulose sodium solution in each paw. The following maximum values of inhibition of the oedema or the formation of the oedema, respectively, were determined: […]

IC50 (5-lipoxygenase) [nM] | Quotient IC50 II/IC50 I (cyclooxygenase) | IC50 (cyclooxygenase) [nM] | SMILES | Time after administration of the test compound (of maximum inhibition) (Sprague-Dawley-rats [1]; 100.0 mg/kg intraperitoneally) [h] | % Inhibition (Maximum) of oedema (Sprague-Dawley-rats [1]; 100.0 mg/kg intraperitoneally) [%] | % Inhibition (Maximum) of oedema (Sprague-Dawley-rats [2]) [%] | Time after administration of the test compound (of maximum inhibition) (Sprague-Dawley-rats [2]) [h] | Time after administration of the test compound (of maximum inhibition) (Sprague-Dawley-rats [1]; 46.4 mg/kg intraperitoneally) [h] | % Inhibition (Maximum) of oedema (Sprague-Dawley-rats [1]; 46.4 mg/kg intraperitoneally) [%]
2900 | 44.8 | 130000 | Oc1ccc(C#CCCCCCC/C=C/C(O)C2CCCCC2)cc1O (stereo not shown) [Example 22c, 11-Cyclohexyl-1-(3',4'-dihydroxphenyl)-11-hydroxy-undec-9E-en-1-yne] | – | – | – | – | – | –
100 | 380.0 | 38000 | COc1cc(C#CCCCCCCC#CCO)cc(OC)c1O [Example 18, 1-(3',5'-Dimethoxy-4'-hydroxyphenyl)-11-hydroxy-undeca-1,9-diyne] | – | – | – | – | – | –
280 | 132.1 | 37000 | Oc1ccc(C#CCCCCCCC#CC(O)C2CCCCC2)cc1O (stereo not shown) [Example 16, 11-Cyclohexyl-1-(3',4'-dihydroxyphenyl)-11-hydroxy-undeca-1,9-diyne] | 1 | 54 | 45 | 7 | – | –
350 | 88.6 | 31000 | CC(C)(O)C#CCCCCCCC#Cc1ccc(O)c(O)c1 [Example 13, 1-(3',4'-Dihydroxyphenyl)-11-hydroxy-11-methyl-dodeca-1,9-diyne] | – | – | – | – | – | –
320 | > 320.0 | > 100000 | Oc1ccc(C#CCCCCCCC#CC(O)c2ccccc2)cc1O (stereo not shown) [Example 15, 1-(3',4'-Dihydroxyphenyl)-11-hydroxy-11-phenyl-undeca-1,9-diyne] | 2 | 73 | 64 | 5 | – | –
2800 | 64.3 | 180000 | Oc1ccc(/C=C\CCCCCC/C=C/C(O)C2CCCCC2)cc1O (stereo not shown) [Example 22d, 11-Cyclohexyl-1-(3',4'-dihydroxyphenyl)-11-hydroxy-undeca-1Z,9E-diene] | – | – | – | – | – | –
210 | 119.1 | 25000 | CCCCCC(O)C#CCCCCCCC#Cc1ccc(O)c(O)c1 (stereo not shown) [Example 14, 1-(3',4'-Dihydroxyphenyl)-11-hydroxy-hexadeca-1,9-diyne] | 2 | 127 | 46 | 2 | 1 | 68
– | – | – | COc1cc(C#CCCCCCCC#CCO)ccc1O [Example 5, 11-Hydroxy-1-(4'-hydroxy-3'-methoxyphenyl)-undeca-1,9-diyne] | – | – | 61 | 3 | – | –
310 | 90.3 | 28000 | OC/C=C\CCCCCC/C=C\c1ccc(O)c(O)c1 [Example 9, 1-(3',4'-Dihydroxyphenyl)-11-hydroxy-undeca-1Z,9Z-diene] | – | – | – | – | – | –
150 | 253.3 | 38000 | OCC#CCCCCCCC#Cc1ccc(O)c(O)c1 [Example 7, 1-(3',4'-Dihydroxyphenyl)-11-hydroxy-undeca-1,9-diyne] | 1 | 164 | 36 | 2 | 1 | 65
